Measured values as given in patent US8143025B2, “Antibodies against vascular endothelial growth factor receptor-1” (ImClone LLC, priority 2004, dated 2012).

Key:
[1] = target: T1, DU4475 human breast carcinoma cells (Homo sapiens, UniProt P17948); assay: Flow cytometry analysis, DU4475 cells; type: binding; settings: FIG. 8B
T1 construct: host or cells: DU4475 human breast carcinoma cells
Method: Aliquots of 10^6PAE-VEGFR-I cells were harvested from subconfluent cultures and incubated with anti-VEGFR-I antibody clones 6F9, 13G12, F11, and 18F1 in PBS with 1% bovine serum albumin (BSA) and 0.02% sodium azide (staining buffer) for one hour on ice. Aliquots of 10^6DU4475 human breast carcinoma cells were harvested from subconfluent cultures and incubated with anti-VEGFR-1 antibody clone 18F1 in PBS with 1% bovine serum albumin (BSA) and 0.02% sodium azide (staining buffer) for one hour on ice. A matched IgG isotype (Jackson ImmunoResearch, West Grove, Pa.) was used as a negative control. Cells were washed twice with flow buffer and then incubated with a fluorescein isothiocyanate (FITC)-labeled goat anti-human IgG antibody (BioSource International, Camarillo, Calif.) in staining buffer for 30 minutes on ice. Cells were washed as above and analyzed on an Epics XL flow cytometer (Beckman-Coulter, Hialeah, Fla.). Dead cells and debris were eliminated from the analysis on the basis of forward and sideways light scatter. The mean fluorescent intensity units (MFRJ) were calculated as the mean log fluorescence multiplied by the percentage of positive population.

Akt = Akt phosphorylation Western blot, BT474 cells; type: cell-based, human; settings: BT474 breast cancer cells, FIG. 15
Method: Autophosphorylation of the VEGFR-I induced by its ligands and resulting activation of a classical MAPK, extracellular signal-regulated protein kinases 1Z2 (ERK1Z2) and the PBK/Atk downstrean signaling pathways mediate cellular biological responses such as proliferation, motility, survival, and differentiation. The ability of an anti-VEGFR-1 antibody to inhibit phosphorylation of VEGFR-I and activation of ERK1 Z2 and the Akt kinases downstream signaling were determined by using the PAE-VEGFR-I transfectant and BT474 breast carcinoma cells.
For evaluation of MAPK and Akt phosphorylation, BT474 cells were seeded at a density of 5×10^5/well in 12 well plates in serum-free conditions for 18 hours. Cells were treated at 37° C. with anti-VEGFR-1 antibody clone 18F1 or isotype control for 1 hour and then incubated with 50 ng/ml of VEGF or 100 ng/ml of PlGF for 5-10 minutes. Cell lysis, protein isolation and electroblotting were performed. Membranes were incubated with antibodies against phosphorylated p44/p42 MAP kinases (Thr202/Tyr204, Santa Cruz Biotechnology, Santa Cruz, Calif.) or phosphorylated Akt (Ser473, Cell Signaling Technology, Beverly, Mass.), at a concentration of 1 μg/ml, followed by incubation with a secondary IgG-HRP (1:5000). […]

DLD-I xenograft = assay: DLD-I colon cancer xenograft; type: in vivo, mouse; settings: monotherapy, FIG. 26B
Method: Female athymic nu/nu mice, 6-8 weeks of age, were injected subcutaneously on the lateral dorsal surface with 0.4 mL volume of a suspension containing a human tumor cell line in media, diluted 1:1 with MATRIGEL™ (BD Biosciences). The cell lines used in xenograft models, with the cell doses indicated in parenthesis (10^6 cells/mouse), were: human colon carcinoma cell lines DLD-I (5), GEO (5) and HT-29 (5); human breast carcinoma cell lines DU4475 (2), MDA-MB-231 (5), MDA-MB-435 (5), and BT474 (5). When tumors reached approximately 200-300 mm^3, mice were randomized by tumor size and divided into treatment groups. Tumor growth was evaluated approximately twice weekly, with tumor volume calculated as π/6* (Length*Width^2), where Length=longest diameter and Width=diameter perpendicular to Length. Tumor dimensions were measured with calipers. T/C % was calculated as 100*(Final Treatment Tumor Volume/Initial Treatment Tumor Volume)/(Final Control Tumor Volume/Initial Control Tumor Volume).
18F1 was diluted in 0.9% USP saline (Braun) or phosphate buffered saline (PBS) and administered intraperitoneally in a volume of 0.5 mL per mouse. The effect of treatment on tumor growth was analyzed using repeated measures analysis of variance (RM ANOVA), p<0.05 was considered significant.

[2] = tested on: HT-29 human colon carcinoma cells; assay: Soft agarose colony formation; type: cell-based; settings: 66 nM antibody, 10 ng/mL VEGF-A or 50 ng/mL VEGF-B, 14 days, p<0.03
Method: One mL DMEM medium containing 10% FBS and 1% agarose (Cambrex Corporation, East Rutherford, N.J.) was plated in each well of six well plates. HT-29 human colon carcinoma cells in serum free medium were treated with 66 nM 18F1 or control IgG for 1 hour and followed by treatment with 10 ng/mL VEGF-A or 50 ng/mL VEGF-B for additional 4 hours. The treated cells were mixed with 1 mL 10% FBS DMEM containing 0.5% agarose and the appropriate antibodies and/or ligands. One mL of this suspension, containing 250 cells, was plated in each well on top of the 1% agarose base layer. After 2 days, additional medium containing antibodies and/or ligands was added to the wells to keep the agarose hydrated. Cells were allowed to grow for 14 days at 37° C. Afterwards, colonies larger than 50 μm in diameter were counted using a dissecting microscope. Statistical analysis was performed using hiStat Statistical Software (V2.03, GraphPad Software, San Diego, Calif.)

MDA-MB-231 xenografts = assay: Immunohistochemistry and TUNEL of MDA-MB-231 xenografts; type: in vivo, mouse
Method: Paraffin-embedded MDA-MB-231 xenografts were evaluated immunohistochemically for markers of tumor cell proliferation, survival, and apoptosis. Markers of proliferation and survival included Ki-67 (rabbit pAb; Lab Vision Corporation, Fremont, Calif.), phospho-specific p44/42 MAPK (Thr202/Tyr204) (rabbit pAb; Cell Signaling Technology) and phospho-specific Akt (Ser473) (rabbit pAb; Cell Signaling Technology). The EnVision+ System for rabbit antibodies (DAKO Cytomation, Carpenteria, Calif.) was used with 3,3′ diaminobenzidine (DAB) as the chromagen, per kit instructions. After brief counterstaining in Mayer's hematoxylin all sections were dehydrated, cleared and coverslipped using a permanent mounting medium. Tumor apoptosis was assessed by TUNEL assay using ApopTag® Peroxidase In Situ Apoptosis Detection Kit (Chemicon, Temecula, Calif.) per kit instructions. Stained sections were coverslipped with Gelmount (Biomeda, Foster City, Calif.). Positive immunostaining and TUNEL positive […] were analyzed and imaged using an Axioskop light microscope with an Axiocam digital camera (Carl Zeiss, Germany).

[3] = after 1 week, 0.5 mg/dose M-W-F
[4] = after 14 days, 20 mg/kg 2x/week

T1 sequence (P17948 27-1338): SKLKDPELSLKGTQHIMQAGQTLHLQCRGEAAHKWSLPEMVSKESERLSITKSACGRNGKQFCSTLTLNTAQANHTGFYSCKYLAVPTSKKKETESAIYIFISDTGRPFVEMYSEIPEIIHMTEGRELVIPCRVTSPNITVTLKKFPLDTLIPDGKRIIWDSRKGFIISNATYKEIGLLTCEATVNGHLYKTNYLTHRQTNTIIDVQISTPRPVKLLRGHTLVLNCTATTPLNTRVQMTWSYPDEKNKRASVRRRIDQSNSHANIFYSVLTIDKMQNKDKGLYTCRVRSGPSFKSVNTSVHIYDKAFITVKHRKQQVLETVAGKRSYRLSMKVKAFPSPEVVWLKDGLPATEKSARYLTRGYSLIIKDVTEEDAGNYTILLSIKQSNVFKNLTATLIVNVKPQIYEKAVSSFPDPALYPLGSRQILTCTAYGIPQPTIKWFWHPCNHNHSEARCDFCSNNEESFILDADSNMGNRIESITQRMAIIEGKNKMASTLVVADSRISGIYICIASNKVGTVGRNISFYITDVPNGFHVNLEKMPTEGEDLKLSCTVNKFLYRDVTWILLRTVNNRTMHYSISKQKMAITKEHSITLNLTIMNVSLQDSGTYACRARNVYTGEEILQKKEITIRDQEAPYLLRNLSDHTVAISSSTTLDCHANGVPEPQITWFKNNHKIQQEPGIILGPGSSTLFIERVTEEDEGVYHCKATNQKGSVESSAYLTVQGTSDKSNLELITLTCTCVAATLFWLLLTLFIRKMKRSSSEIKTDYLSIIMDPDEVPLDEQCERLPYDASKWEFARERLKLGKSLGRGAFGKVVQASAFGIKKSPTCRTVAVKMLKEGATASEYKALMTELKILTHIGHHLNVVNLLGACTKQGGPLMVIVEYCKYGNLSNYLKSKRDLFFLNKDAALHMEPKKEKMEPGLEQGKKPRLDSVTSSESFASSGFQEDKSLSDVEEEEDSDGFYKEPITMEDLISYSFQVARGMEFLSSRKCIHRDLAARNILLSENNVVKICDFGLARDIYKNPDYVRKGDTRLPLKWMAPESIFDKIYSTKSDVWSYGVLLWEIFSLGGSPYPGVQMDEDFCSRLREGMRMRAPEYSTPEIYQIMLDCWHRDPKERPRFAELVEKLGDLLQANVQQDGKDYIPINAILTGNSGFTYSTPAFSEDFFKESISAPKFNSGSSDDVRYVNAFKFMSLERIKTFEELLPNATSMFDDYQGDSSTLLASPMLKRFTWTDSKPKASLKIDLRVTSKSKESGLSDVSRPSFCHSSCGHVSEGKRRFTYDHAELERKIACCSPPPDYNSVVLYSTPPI

In the case of “18F1: human anti-VEGFR-1 monoclonal antibody clone; VL SEQ ID NO: 16, VH SEQ ID NO: 20 [Clone 18F1]”, the “binding reactivity with DU4475 human breast carcinoma” value [1] is reported as “binding reactivity”, the “PlGF or VEGF-stimulated phosphorylation of Akt” value (Akt) is reported as “significantly blocked” and the “antitumor effect against DLD-I colon cancer xenografts” value (DLD-I xenograft) is reported as “significant antitumor effect”. For the same substance, the “VEGF-A or VEGF-B induced colony formation” value [2] was “completely suppressed”, the Akt phosphorylation (MDA-MB-231 xenografts; [3]) was “significant decrease” and the “apoptosis as measured by TUNEL positive events” value (MDA-MB-231 xenografts; [3]) was “increase”. The “activation of MAPK” value (MDA-MB-231 xenografts; [4]) was “marked decrease” and the “marker for proliferating cells (Ki-67)” value (MDA-MB-231 xenografts; [4]) was “significantly reduced”.
